# Laboratory results as given in patent US6060451A, “Thrombin inhibitors based on the amino acid sequence of hirudin” (The National Research Council of Canada, priority 1995, dated 2000).
# Counter-ions that a name gives are not always drawn. Like-named read-outs stand apart in the source and are kept apart here. Starred links: 1 amine or outer side, 2 acyl side, 3 side chain; linkers in the order of their positions; H or OH if unused. Non-standard residues stand in square brackets, D forms with d. Residues, ends and D or L forms follow the SMILES beside them. Argψ(COCH2)Gly = N=C(N)NCCC[C@H](N[*:1])C(=O)CCC(=O)[*:2]; X1 = N=C(N)NCCC[C@H](N[*:1])C(=O)CCCCC(=O)[*:2]; Cha = N[C@@H](CC1CCCCC1)C(=O)O; dCha = N[C@H](CC1CCCCC1)C(=O)O; Ava = NCCCCC(=O)O
# Tests used:
# thrombin [1] = molecular target: T1, thrombin (Homo sapiens, UniProt P00734); assay: Antithrombin activity in vitro, Ki (Table III); format: biochemical; details: first test where two are given; means for 3-5 observations
# Description: The reactions were initiated by addition of the substrate dissolved in 0.1 M Tris-HCl buffer, pH 7.8 to a preincubated solution of enzyme (0.4 or 0.04 nM) and variable concentrations of inhibitor dissolved in the same buffer. Initial velocities were recorded and Ki values were determined graphically by weighted linear regression of Dixon plots in the case of competitive inhibition, or by the method of Baici (Baici, 1981) for hyperbolic inhibition. Fluorogenic assays were conducted using the same conditions and instrument as above operating in the fluorescence mode in the Ratio (λex=383 nm, λem=455 nm). Fluorescence intensities were calibrated with 7-amino-4-methyl coumarin solution of known concentration. The specificity of the synthetic peptides of the present invention for human α-thrombin may also be determined by comparing their relative inhibitory activities towards both human α-thrombin and bovine α-thrombin and trypsin by comparing Ki values obtained in the amidolytic assay of thrombin activity.
# thrombin [2] = molecular target: T1, thrombin; assay: Thrombin time in buffer containing fibrinogen (dTT); format: biochemical; details: read-out: IC50 dTT (concentration required to double thrombin time)
# Description: *Concentration of compound required to double thrombin time in buffer
# human α-thrombin = human α-thrombin (Homo sapiens, UniProt P00734); assay: Fluorogenic amidolytic assay of thrombin activity, hydrolysis of Tosyl-Gly-Pro-Arg-AMC (Table I)
# human plasma clotting = assay: Human plasma clotting time; format: biochemical; details: read-out: IC50 plasma clotting time (concentration required to inhibit human plasma clotting time by 50%)
# Description: Thus, for the determination of prothrombin time, 50 μl of reconstituted citrated normal human plasma (Sigma, St-Louis, Mo.) is mixed with 50 μl of thromboplastin solution at 37° C. in a 400 μl cuvette. […] The clotting time is recorded following recalcification with 100 μl of 25 mM CaCl2. The clotting time in the absence of inhibitor was between 19-22 sec.
# The same procedure is adopted for the determination of activated partial thromboplastin time except that reconstituted plasma is activated for 3 minutes with cephalin (Sigma, St-Louis, Mo.).
# **Concentration of compound required to inhibit human plasma clotting tim
# [3] = system: venous thrombosis in vena cava; assay: Venous thrombosis model (balloon catheter induced-injury and stasis in vena cava); format: in vivo, rat; details: rats
# Description: Rats ranging in weight from 350 g-450 g were anaesthetized with urethane [50%] at 1500 mg/kg IP. The abdomen and neck were shaved and prepared for surgery.
# An incision was made from the base of the sternum to approximately 10-20 mm up from the penile sheath. Another incision was made across the end of the incision (90 degree) to create a flap to be hemostat open. […] Two sutures were loosely looped around the vein(1) and the vein and artery(2), just posterior to the renal veins and arteries. All other branches coming off dorsally from the vena cava were ligated as well as any other veins which may branch of this vein (approximately 4-6 depending on rat). Two more sutures were looped around the vein(1) and artery and vein(2) at the bifurcation of the femoral vein and artery. The right jugular vein was isolated, for later injection of compound.
# An incision in the upper interior leg was made and the femoral vein and artery were exposed. The femoral vein was isolated and two sutures were looped around it. One suture was ligated distally, and the other one was pulled tight (proximal) to stop blood flow through the vessel. A very small incision was made into the vein and a 2F fogarty catheter was inserted. The catheter was fed up the femoral vein to the upper sutures (near the renal veins). At this point, inject the compound via the isolated right jugular vein and wait 1 minute. At 1 minute inflate the fogarty catheter with enough saline to distend the vena cava, but still allowing the catheter to be pulled back down to the point of femoral bifurcation without bursting the vessel. This procedure was repeated 3 times. After the third passage, the catheter was removed and as quickly as possible, the femoral incision was ligated with the proximal suture and the suture which was looped around only the vena cava was ligated to stop return flow and allow thrombus growth and the timer was set for 30 minutes.
# At this point, the intestines may be placed back in the body cavity, and moistened with saline if any drying has occurred, and skin kept closed with hemostat. […]
# [4] = system: activated partial thromboplastin time; assay: Increase in APTT, bolus plus infusion model; format: in vivo, rat; details: intravenous bolus followed by infusion
# [5] = system: carotid artery thrombosis; assay: Ferric chloride injury-induced thrombosis model in carotid artery; details: rat carotid artery, FeCl3 injury
# Description: Species: Rat, male, Sprague-Dawley.
# Animals were laid on a heating pad which was maintained at 37° C. The carotid artery was approached through a midline cervical incision. Carefully blunt dissection was used to expose and isolate the vessel from the carotid sheath. […] The vessel temperature was monitored for 60 minutes after application of FeCl3. […] The site of the experiment was covered with aluminum foil in order to protect the FeCl3 from degradation by light.
# All the samples were kept on ice and centrifuged as soon as possible at 2000 Rpm for 10 min., 4° C. The plasma was analyzed in duplicate for activated partial thromboplastin time on a haemostasis analyzer (STAGO ST4™).
# From a group of four animals, two arteries were stored at -80° C. for further analysis. The others were observed under a light microscope at 40× (Leica™) for quantification of the occlusion (complete, partial, no occlusion).
# In some studies, the animal was receiving the compound by i.v. infusion instead of a bolus. In this case, the jugulars and femoral veins were cannulated with Sylastic tubing (I.D. 0.025IN). This left jugular was used for blood sampling and the right one for the infusion line. The compound was infused 30 minutes before injury and then for an other 30 minutes post-injury. Blood samples were taken at time 0, 30 and 60 minutes for APTT test and thrombin test (1 ml of blood/90 ul of citrated buffer).
Compound,Ki (thrombin [1]) [nM],IC50 (thrombin [2]) [nM],other results
CC[C@H](C)[C@H](NC(=O)[C@@H]1CCCN1C(=O)[C@H](CCC(=O)O)NC(=O)[C@H](Cc1ccccc1)NC(=O)[C@H](CC(=O)O)NC(=O)CNC(=O)[C@H](CC(=O)O)NC(=O)[C@H](CC(N)=O)NC(=O)[C@H](Cc1c[nH]cn1)NC(=O)[C@H](CO)NC(=O)[C@H](CCC(N)=O)NC(=O)CCC(=O)[C@H](CCCNC(=N)N)NC(=O)[C@@H]1CCCN1C(=O)[C@@H](Cc1ccccc1)NC(C)=O)C(=O)N1CCC[C@H]1C(=O)N[C@@H](CCC(=O)O)C(=O)N[C@@H](CCC(=O)O)C(=O)N[C@@H](Cc1ccc(O)cc1)C(=O)N[C@@H](CC1CCCCC1)C(=O)N[C@@H](CCC(N)=O)C(=O)O [BCH-2408] (Ac-[dF]P[Argψ(COCH2)Gly]QSHNDGDFEPIPEEY[Cha]Q-OH),0.075,1,–
"CC[C@H](C)[C@H](NC(=O)[C@@H]1CCCN1C(=O)[C@H](CCC(=O)O)NC(=O)[C@H](Cc1ccccc1)NC(=O)[C@H](CC(=O)O)NC(=O)CCCCNC(=O)CCCCNC(=O)CCCCC(=O)[C@H](CCCNC(=N)N)NC(=O)[C@@H]1CCCN1C(=O)[C@@H](Cc1ccccc1)NC(C)=O)C(=O)N1CCC[C@H]1C(=O)N[C@@H](CC(C)C)C(=O)O [BCH-2739, Ac(D-Phe)-Pro-Arg-(CH2)4 (CO)--[NH(CH2)4 (CO)]2 -DFEPIPL-OH] (Ac-[dF]P[X1][Ava][Ava]DFEPIPL-OH)",4,14.5,–
"CC[C@H](C)[C@H](NC(=O)[C@@H]1CCCN1C(=O)[C@H](CCC(=O)O)NC(=O)[C@H](Cc1ccccc1)NC(=O)[C@H](CC(=O)O)NC(=O)CCCCNC(=O)CCCCNC(=O)CCCCC(=O)[C@H](CCCNC(=N)N)NC(=O)[C@@H]1CCCN1C(=O)[C@H](N)Cc1ccccc1)C(=O)N1CCC[C@H]1C(=O)N[C@@H](CC(C)C)C(=O)O [BCH-2763, (D-Phe)-Pro-Arg-(CH2)4 (CO)--[NH(CH2)4 CO]2 -DFEPIPL-TFA salt] (H-[dF]P[X1][Ava][Ava]DFEPIPL-OH)",0.1,1.3,–
"CC[C@H](C)[C@H](NC(=O)[C@@H]1CCCN1C(=O)[C@H](CCC(=O)O)NC(=O)[C@H](Cc1ccccc1)NC(=O)CCCCNC(=O)CCCCNC(=O)CCCCC(=O)[C@H](CCCNC(=N)N)NC(=O)[C@@H]1CCCN1C(=O)[C@H](N)Cc1ccccc1)C(=O)N1CCC[C@H]1C(=O)N[C@@H](CC(C)C)C(=O)O [BCH-2767, (D-Phe)-Pro-Arg-(CH2)4 (CO)--[NH(CH2)4 CO]2 -FEPIPL-TFA salt] (H-[dF]P[X1][Ava][Ava]FEPIPL-OH)",40,165,–
CC[C@H](C)[C@H](NC(=O)[C@H](CCC(=O)O)NC(=O)[C@H](CCC(=O)O)NC(=O)[C@H](Cc1ccccc1)NC(=O)[C@H](CC(=O)O)NC(=O)CNC(=O)[C@H](CC(=O)O)NC(=O)[C@H](CC(N)=O)NC(=O)[C@H](Cc1c[nH]cn1)NC(=O)[C@H](CO)NC(=O)[C@H](CCC(N)=O)NC(=O)CCCC(=O)[C@H](CCCNC(=N)N)NC(=O)[C@@H]1CCCN1C(=O)[C@@H](Cc1ccccc1)NC(C)=O)C(=O)N1CCC[C@H]1C(=O)N[C@@H](CCC(=O)O)C(=O)N[C@@H](CCC(=O)O)C(=O)N[C@@H](Cc1ccc(O)cc1)C(=O)N[C@@H](CC(C)C)C(=O)N[C@@H](CCC(N)=O)C(=O)O [P102],–,–,Ki (human α-thrombin): 0.56 nM
CC[C@H](C)[C@H](NC(=O)[C@H](CCC(=O)O)NC(=O)[C@H](CCC(=O)O)NC(=O)[C@H](Cc1ccccc1)NC(=O)[C@H](CC(=O)O)NC(=O)CNC(=O)[C@H](CC(=O)O)NC(=O)[C@H](CC(N)=O)NC(=O)[C@H](Cc1c[nH]cn1)NC(=O)[C@H](CO)NC(=O)[C@H](CCC(N)=O)NC(=O)CCCCC(=O)[C@H](CCCNC(=N)N)NC(=O)[C@@H]1CCCN1C(=O)[C@@H](Cc1ccccc1)NC(C)=O)C(=O)N1CCC[C@H]1C(=O)N[C@@H](CCC(=O)O)C(=O)N[C@@H](CCC(=O)O)C(=O)N[C@@H](Cc1ccc(O)cc1)C(=O)N[C@@H](CC(C)C)C(=O)N[C@@H](CCC(N)=O)C(=O)O [P103],–,–,Ki (human α-thrombin): 0.14 ± 0.02 nM
CC[C@H](C)[C@H](NC(=O)[C@H](CCC(=O)O)NC(=O)[C@H](CCC(=O)O)NC(=O)[C@H](Cc1ccccc1)NC(=O)[C@H](CC(=O)O)NC(=O)CNC(=O)[C@H](CC(=O)O)NC(=O)[C@H](CC(N)=O)NC(=O)[C@H](Cc1c[nH]cn1)NC(=O)[C@H](CO)NC(=O)CNC(=O)CC(=O)[C@H](CCCNC(=N)N)NC(=O)[C@@H]1CCCN1C(=O)[C@@H](Cc1ccccc1)NC(C)=O)C(=O)N1CCC[C@H]1C(=O)N[C@@H](CCC(=O)O)C(=O)N[C@@H](CCC(=O)O)C(=O)N[C@@H](Cc1ccc(O)cc1)C(=O)N[C@@H](CC(C)C)C(=O)N[C@@H](CCC(N)=O)C(=O)O [P109],2.25,–,–
CC[C@H](C)[C@H](NC(=O)[C@H](CCC(=O)O)NC(=O)[C@H](CCC(=O)O)NC(=O)[C@H](Cc1ccccc1)NC(=O)[C@H](CC(=O)O)NC(=O)CNC(=O)[C@H](CC(=O)O)NC(=O)[C@H](CC(N)=O)NC(=O)[C@H](Cc1c[nH]cn1)NC(=O)[C@H](CO)NC(=O)[C@H](CCC(N)=O)NC(=O)CCC(=O)[C@H](CCCNC(=N)N)NC(=O)[C@@H]1CCCN1C(=O)[C@@H](CC1CCCCC1)NC(C)=O)C(=O)N1CCC[C@H]1C(=O)N[C@@H](CCC(=O)O)C(=O)N[C@@H](CCC(=O)O)C(=O)N[C@@H](Cc1ccc(O)cc1)C(=O)N[C@@H](CC(C)C)C(=O)N[C@@H](CCC(N)=O)C(=O)O [P311],0.16,1.35,–
CC[C@H](C)[C@H](NC(=O)[C@@H]1CCCN1C(=O)[C@H](CCC(=O)O)NC(=O)[C@H](Cc1ccccc1)NC(=O)[C@H](CC(=O)O)NC(=O)CNC(=O)[C@H](CC(=O)O)NC(=O)[C@H](CC(N)=O)NC(=O)[C@H](Cc1c[nH]cn1)NC(=O)[C@H](CO)NC(=O)[C@H](CCC(N)=O)NC(=O)CCC(=O)[C@H](CCCNC(=N)N)NC(=O)[C@@H]1CCCN1C(=O)[C@@H](CC1CCCCC1)NC(C)=O)C(=O)N1CCC[C@H]1C(=O)N[C@@H](CCC(=O)O)C(=O)N[C@@H](CCC(=O)O)C(=O)N[C@@H](Cc1ccc(O)cc1)C(=O)N[C@@H](CC1CCCCC1)C(=O)N[C@@H](CCC(N)=O)C(=O)O [P314] (Ac-[dCha]P[Argψ(COCH2)Gly]QSHNDGDFEPIPEEY[Cha]Q-OH),0.02,1.3,–
Ac(D-Phe)-Pro-Arg-(CH2)4 (CO)-[NH--CH2 --CH=CH--CH2 --(CO)]2 -DEFPIPY-OH ({Ac-dF-Pro-Arg-(CH2)4CO-NHCH2CH:CHCH2CO-NHCH2CH:CHCH2CO}-DEFPIPY-OH; also: Arg carbonyl bonded to (CH2)4 (non-amide backbone link)) [BCH-2414],1,6.23,IC50 (human plasma clotting): 10.5 nM
Ac(D-Phe)-thioPro-Arg-(CH2)2 (CO)-QSHNDGDFEEIPEEYLQ-OH [P290],0.9,–,IC50 (human plasma clotting): 11 nM
"Hirulog: comparator thrombin inhibitor, BCH number 1724",–,–,Minimum Bolus dose needed to achieve patency ([3]; i.v. bolus): 0.05 to 0.125 mg/kg
"[D-Phe^45, Ala^47 ]hirudin^45-65 [P73]",–,–,"Ki (human α-thrombin; read-out: Human Ki, human α-thrombin mediated hydrolysis of Tosyl-Gly-Pro-Arg-AMC, mean of three determinations ± SEM, ni = not inhibited): 41 ± 15 nM"
heparin [reference compound],–,–,Dose needed to achieve patency [3]: 10-15 U; Bolus needed to achieve the same increase in APTT [4]: 25 U; Infusion needed to achieve the same increase in APTT [4]: 0.5 U/kg/min; Dose needed to cause a doubling in patency time [5]: 200 U/kg
